Measurements reported in PubChem BioAssay (NCI).
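Grown in 96-well plates, cells were treated for 48 hours with each compound at five concentrations. Insufficient inhibition: endpoint recorded as highest concentration tested. At the TGI there is no net growth.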

Columns and labels:
Assay in all cases: NCI tumour cell line growth inhibition, 48 h
BT-549 breast = test system: BT-549 breast
LOX IMVI melanoma = test system: LOX IMVI melanoma
MDA-MB-231 breast = test system: MDA-MB-231 breast
MDA-MB-435 = test system: MDA-MB-435
NCI-H226 lung = test system: NCI-H226 lung
RPMI-8226 leukemia = test system: RPMI-8226 leukemia
SK-MEL-28 melanoma = test system: SK-MEL-28 melanoma
SR leukemia = test system: SR leukemia
T-47D breast = test system: T-47D breast
UACC-257 melanoma = test system: UACC-257 melanoma

Measured: TGI

C=C1NC(=O)C(CC(C(=O)C(=O)Nc2c(C)cccc2C(C)(C)C)C(=O)c2ccc3ccccc3c2)C(=O)N1 (stereo not given)
> 100 µM: all assays above
